Read-outs that look alike come from different tables or passages of the source. *1 amine or outer side, *2 acyl side, *3 side chain or, on linkers, in order; H or OH if unused. Where a SMILES comes first, the peptide text is derived from it. Bridges are numbered along the chain shown (N, C = ends). [ ]: non-standard residue; d: D form. The star is where a group is joined. hPhe(3-Cl-4-CF3) = N[C@@H](CCc1ccc(C(F)(F)F)c(Cl)c1)C(=O)O; NPrPhe(4-CF3) = CCCN[C@@H](Cc1ccc(C(F)(F)F)cc1)C(=O)O; X21 = Cc1ccc(C[C@@H](C(=O)[*:2])N(CC2CC2)[*:1])cc1; NMeGly(cPent) = CN[C@H](C(=O)O)C1CCCC1; Pro(4,4-F2) = O=C(O)[C@@H]1CC(F)(F)CN1; NMeD = CN[C@@H](CC(=O)O)C(=O)O; NMeL = CN[C@@H](CC(C)C)C(=O)O; Morpholide = C1CN(*)CCO1; Ac5c = NC1(C(=O)O)CCCC1; Ac4c = NC1(C(=O)O)CCC1; Sar = CNCC(=O)O
Key:
[1] = target: GDP-bound KRAS wild-type protein (Homo sapiens, UniProt P01116); test: Binding to KRAS by surface plasmon resonance (SPR), Single Cycle Kinetics; details: GDP-bound KRAS wild-type protein, read-out: KRAS KD
[2] = target: GDP-bound NRAS wild-type protein (Homo sapiens, UniProt P01111); test: Binding to NRAS by surface plasmon resonance (SPR), Single Cycle Kinetics; details: for NRAS/KRAS (ratio of KD value with respect to GDP-bound NRAS wild-type protein to KD value with respect to KRAS): SPR KD ratio NRAS/KRAS, class symbols; for NRAS/KRAS (ratio of KD value with respect to NRAS to KD value with respect to KRAS) / NRAS/KRAS (ratio of KD value for NRAS to KD value for KRAS): SPR, GDP-bound NRAS wild-type protein vs GDP-bound KRAS wild-type protein
[3] = target: GDP-bound HRAS wild-type protein (Homo sapiens, UniProt P01112); test: Binding to HRAS by surface plasmon resonance (SPR), Single Cycle Kinetics; details: for HRAS/KRAS (ratio of KD value with respect to GDP-bound HRAS wild-type protein to KD value with respect to KRAS): SPR KD ratio HRAS/KRAS, class symbols; for HRAS/KRAS (ratio of KD value with respect to HRAS to KD value with respect to KRAS) / HRAS/KRAS (ratio of KD value for HRAS to KD value for KRAS): SPR, GDP-bound HRAS wild-type protein vs GDP-bound KRAS wild-type protein
[4] = SPR Single Cycle Kinetics, 1:1 binding model

Chain of GDP-bound NRAS wild-type protein (P01111 whole entry): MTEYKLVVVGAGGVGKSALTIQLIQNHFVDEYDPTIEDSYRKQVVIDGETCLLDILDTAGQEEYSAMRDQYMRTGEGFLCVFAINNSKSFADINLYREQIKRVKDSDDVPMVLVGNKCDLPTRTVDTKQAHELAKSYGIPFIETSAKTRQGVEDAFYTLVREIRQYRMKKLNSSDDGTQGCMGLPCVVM
Chain of GDP-bound HRAS wild-type protein (P01112 whole entry): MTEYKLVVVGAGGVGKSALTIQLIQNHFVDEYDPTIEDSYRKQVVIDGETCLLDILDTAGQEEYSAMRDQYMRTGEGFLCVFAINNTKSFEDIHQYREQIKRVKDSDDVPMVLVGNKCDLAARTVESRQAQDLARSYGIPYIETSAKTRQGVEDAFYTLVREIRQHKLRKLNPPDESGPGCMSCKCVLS
Chain of GDP-bound KRAS wild-type protein (P01116 whole entry): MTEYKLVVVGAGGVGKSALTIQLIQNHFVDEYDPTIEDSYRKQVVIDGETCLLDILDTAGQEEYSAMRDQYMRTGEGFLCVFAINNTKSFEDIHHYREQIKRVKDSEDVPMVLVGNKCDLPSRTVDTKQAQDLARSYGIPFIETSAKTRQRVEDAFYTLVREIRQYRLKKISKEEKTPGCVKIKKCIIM

| SMILES | Kd [1, 4] | Kd ([1]; SPR, Single Cycle Kinetics) | NRAS/KRAS (ratio of KD value with respect to GDP-bound NRAS wild-type protein to KD value with respect to KRAS) [2] | HRAS/KRAS (ratio of KD value with respect to GDP-bound HRAS wild-type protein to KD value with respect to KRAS) [3] | NRAS/KRAS (ratio of KD value with respect to NRAS to KD value with respect to KRAS) [2] | HRAS/KRAS (ratio of KD value with respect to HRAS to KD value with respect to KRAS) [3] | NRAS/KRAS (ratio of KD value for NRAS to KD value for KRAS) [2] | HRAS/KRAS (ratio of KD value for HRAS to KD value for KRAS) [3] |
| --- | --- | --- | --- | --- | --- | --- | --- | --- |
| CCC[C@H]1C(=O)N[C@@H]([C@@H](C)CC)C(=O)N(C)CC(=O)N(C)[C@H]2C/C=C\CCN(C2=O)[C@@H](CC2CCC(F)(F)CC2)C(=O)N(C)CC(=O)N[C@@H](CCc2ccc(C(F)(F)F)c(OC)c2)C(=O)N2C[C@H](OCC)C[C@H]2C(=O)N(C)C2(CCC2)C(=O)N(C)[C@@H](C(CC)CC)C(=O)N(C)[C@H](C(=O)N(C)C)CC(=O)N1C [PP2345] |  | 1.7 nM |  |  |  |  | A (a compound having 10 or more and less than 20 is denoted as A) | A (a compound having 10 or more and less than 20 is denoted as A) |
| CC[C@H](C)[C@@H]1NC(=O)[C@H](CC2CC2)N(C)C(=O)C[C@@H](C(=O)N(C)C)N(C)C(=O)[C@H](C2CCCC2)N(C)C(=O)C2(CC(C)(C)C2)NC(=O)[C@@H]2C[C@@H](F)CN2C(=O)[C@H](CCc2cc(F)c(C(F)(F)F)c(F)c2)NC(=O)CN(C)C(=O)[C@H](Cc2ccc(C)cc2)N2CC/C=C\C[C@@H](C2=O)N(C)C(=O)CN(C)C1=O [PP2804] | 0.033 nM |  | A (a compound having 10 or more and less than 20 is denoted as A) | A (a compound having 10 or more and less than 20 is denoted as A) |  |  |  |  |
| CC[C@H](C)[C@@H]1NC(=O)[C@H](CC(C)C)NC(=O)C[C@@H](C(=O)N2CCOCC2)N(C)C(=O)[C@H](C2CCCC2)N(C)C(=O)C2(CCCC2)NC(=O)[C@@H]2CCCN2C(=O)[C@H](CCc2cc(F)c(C(F)(F)F)c(F)c2)NC(=O)CN(C)C(=O)[C@H](Cc2ccc(C(F)(F)F)cc2)N2CCCC[C@@H](C2=O)N(C)C(=O)CN(C)C1=O [PP0590] | 0.27 nM |  |  |  | C (A compound having a KD ratio of 0.1 or more and less than 3 is denoted as C) | B (a compound having 3 or more and less than 10 is denoted as B) |  |  |

Continued by falling Kd [1, 4], values first:

| Kd [1, 4] | Kd ([1]; SPR, Single Cycle Kinetics) | SMILES | NRAS/KRAS (ratio of KD value with respect to GDP-bound NRAS wild-type protein to KD value with respect to KRAS) [2] | HRAS/KRAS (ratio of KD value with respect to GDP-bound HRAS wild-type protein to KD value with respect to KRAS) [3] | NRAS/KRAS (ratio of KD value with respect to NRAS to KD value with respect to KRAS) [2] | HRAS/KRAS (ratio of KD value with respect to HRAS to KD value with respect to KRAS) [3] | NRAS/KRAS (ratio of KD value for NRAS to KD value for KRAS) [2] | HRAS/KRAS (ratio of KD value for HRAS to KD value for KRAS) [3] |
| --- | --- | --- | --- | --- | --- | --- | --- | --- |
| 0.42 nM |  | CC[C@H](C)[C@@H]1NC(=O)[C@H](CC(C)C)N(C)C(=O)C[C@@H](C(=O)N2CCOCC2)N(C)C(=O)[C@H](C2CCCC2)N(C)C(=O)C2(CCCC2)NC(=O)[C@@H]2CCCN2C(=O)[C@H](CCc2ccc(C(F)(F)F)c(Cl)c2)NC(=O)CN(C)C(=O)[C@H](Cc2ccc(C)cc2)N(CC2CC2)C(=O)CN(C)C(=O)CN(C)C1=O [PP0064] ([NMeL]I[Sar][Sar][X21][Sar][hPhe(3-Cl-4-CF3)]P[Ac5c][NMeGly(cPent)][NMeD]-Morpholide; lactam N-11) |  |  |  |  | C (A compound having a KD ratio of 0.1 or more and less than 3 is denoted as C) | C (A compound having a KD ratio of 0.1 or more and less than 3 is denoted as C) |
| 0.26 nM |  | CCO[C@@H]1C[C@H]2C(=O)NC3(CC(C)(C)C3)C(=O)N(C)[C@@H](C3CCCC3)C(=O)N(C)[C@H](C(=O)N(C)CC)CC(=O)N(C)[C@@H](CC)C(=O)N[C@@H]([C@@H](C)CC)C(=O)N(C)CC(=O)N(C)[C@H]3C/C=C\CCN(C3=O)[C@@H](Cc3ccc(C(F)(F)F)cc3)C(=O)N(C)CC(=O)N[C@@H](CCc3ccc(Cl)c(Cl)c3)C(=O)N2C1 [PP2822] | A (a compound having 10 or more and less than 20 is denoted as A) | A (a compound having 10 or more and less than 20 is denoted as A) |  |  |  |  |
| 0.029 nM |  | CCCN1C(=O)CN(C)C(=O)CN(C)C(=O)[C@H]([C@@H](C)CC)NC(=O)[C@H](CC(C)C)N(C)C(=O)C[C@@H](C(=O)N(C)C)N(C)C(=O)[C@H](C2CCCC2)N(C)C(=O)C2(CCC2)NC(=O)[C@@H]2CC(F)(F)CN2C(=O)[C@H](CCc2ccc(C(F)(F)F)c(Cl)c2)NC(=O)CN(C)C(=O)[C@@H]1Cc1ccc(C(F)(F)F)cc1 [PP0414] ([NMeL]I[Sar][Sar][NPrPhe(4-CF3)][Sar][hPhe(3-Cl-4-CF3)][Pro(4,4-F2)][Ac4c][NMeGly(cPent)][NMeD]-NMe2; lactam N-11) |  |  | B (a compound having 3 or more and less than 10 is denoted as B) | C (A compound having a KD ratio of 0.1 or more and less than 3 is denoted as C) |  |  |

— patent US20240158446A1, “CYCLIC COMPOUND HAVING SELECTIVE INHIBITORY ACTION ON KRAS OVER HRAS AND NRAS” (CHUGAI SEIYAKU KABUSHIKI KAISHA, priority 2021, published 2024)
